System: 935938-334-R-J1-PDC spheroids with HUVEC/MSC, viability
Assay: Anticancer human tumor 935938-334-R-J1-PDC patient-derived small intestine adenocarcinoma cell line growth inhibition [PI3K]
Settings: for IC50: curve of first compound; for viability, T/C: stronger effect = lower value
Source text: Combinatorial screen of targeted agents with the PI3K inhibitors inavolisib, alpelisib, duvelisib, and copanlisib in multi-cell type tumor spheroids
A high-throughput screen of multi-cell type tumor spheroids was designed to identify active combinations of targeted small molecules and PI3K pathway inhibitors. Complex spheroids include a stromal component modeled by human endothelial cells (HUVEC) and fibroblasts modeled by human mesenchymal stem cells (MSCs). The concentration ranges selected for each drug and investigational agent were based upon clinically achievable concentrations if the clinical Cmax of the agent was known.
Compounds. The drugs and investigational agents: inavolisib (NSC800729), alpelisib (NSC765974), duvelisib (NSC772469), copanlisib (NSC816437), ipatasertib (NSC767898), afuresertib (NSC778305), talazoparib (NSC767125), sapanisertib (NSC764658), selumetinib (NSC741078), tovorafenib (DAY101, NSC766906), vemurafenib (NSC761431), ravoxertinib (NSC781343), sotorasib (NSC818433), MRTX1133 (NSC 836407), abemaciclib (NSC 768073), palbociclib (NSC758247), venetoclax (NSC 766270), SY5609 (NSC837396), enzalutamide (NSC755605), and darolutamide (NSC825331), were obtained from the National Cancer Institute (NCI) Developmental Therapeutics Program Chemical Repository. The FDA-approved anticancer drug set is available from the NCI Developmental Therapeutics Program. […] The stock solutions were prepared in dimethyl sulfoxide (DMSO, Sigma-Aldrich, St. Louis, MO, cat. D2650) at 800-fold the tested concentration and stored at -70 degrees C prior to their use. All drugs and investigational agents were tested over a range starting from a high concentration at or near the clinical Cmax and decreasing in half-log increments. If the clinical Cmax for an agent had not been determined, the highest concentration tested was 10 microM.
Cell Culture. All cells were maintained in an incubator at 37 degrees C and 5% CO2 with 95% humidity. The PDC lines were cultured according to standard operating procedures established by the NCI PDMR (https://pdmr.cancer.gov/sops/default.htm). All PDCs were thawed and cultured in Matrigel-coated flasks prepared with a working solution of 1X Ham's F-12 nutrient mix, without supplementation (Invitrogen, Waltham, MA, cat. 11765054), 100 U/mL penicillin-streptomycin (Invitrogen, cat. 15140122), and 2.5% Matrigel (Corning Inc., Corning, NY, cat. 354248) for the first three passages. The 354836-022-R-J1-PDC, 475296-252-R-J1-PDC, and 997726-040-R-J2-PDC lines were cultured in 6A media, which includes advanced DMEM/F-12 (Thermo Fisher Scientific, cat. 12634028), 10 mM HEPES (Thermo Fisher Scientific, cat. 15630080), 1X GlutaMAX supplement (Thermo Fisher Scientific, cat. 35050061), 0.1 mg/mL primocin (InvivoGen, San Diego, CA, cat. ant-pm-2), 10% defined fetal bovine serum, heat inactivated (HyClone Laboratories Inc., Logan, UT, cat. SH30070.03HI), 50% L-WRN conditioned media (ATCC, cat. CRL-3276), 1.25 mM N-Acetyl-L-cysteine (Sigma-Aldrich, cat. A9165), 10 mM nicotinamide (Sigma-Aldrich, cat. N0636), 1X B-27 supplement (Thermo Fisher Scientific, cat. 17504044), 1X N-2 supplement (Thermo Fisher Scientific, cat. 17502048), and 10 microM Y-27632 dihydrochloride (Tocris Bioscience, Bristol, United Kingdom, cat. 1254). The 624824-186-R-J2-PDC line was cultured in 6C/Colon 1B media, which includes all 6A media components plus 50 ng/mL human EGF recombinant protein (Thermo Fisher Scientific, cat. PHG0311). […]
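Further: compound exposure lasted seven days before viability was read.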
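Wherever viability, T/C is given: percent of vehicle DMSO treated spheroid viability so 100% = untreated.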

## CC(C)n1nc(-c2ccc3oc(N)nc3c2)c2c(N)ncnc21 + CC(Nc1ccc2c(c1)OCCn1cc(N3C(=O)OCC3C(F)F)nc1-2)C(N)=O
Second compound 0.00316 µM
  IC50: 0.0822 µM
Second compound 0.01 µM
  IC50: > 0.1 µM
Second compound 0.0316 µM
  IC50: 0.0646 µM
Second compound 0.1 µM
  IC50: 0.0441 µM
Second compound 0.316 µM
  IC50: 0.0374 µM
Second compound 1 µM
  IC50: 0.00833 µM
Second compound 0.00316 µM, first compound 0.000316 µM
  viability, T/C: 102%
Second compound 0.00316 µM, first compound 0.001 µM
  viability, T/C: 113%
Second compound 0.00316 µM, first compound 0.00316 µM
  viability, T/C: 80.9%
Second compound 0.00316 µM, first compound 0.01 µM
  viability, T/C: 87.4%
Second compound 0.00316 µM, first compound 0.0316 µM
  viability, T/C: 76.6%
Second compound 0.00316 µM, first compound 0.1 µM
  viability, T/C: 43.5%
Second compound 0.01 µM, first compound 0.000316 µM
  viability, T/C: 112%
Second compound 0.01 µM, first compound 0.001 µM
  viability, T/C: 107%
Second compound 0.01 µM, first compound 0.00316 µM
  viability, T/C: 109%
Second compound 0.01 µM, first compound 0.01 µM
  viability, T/C: 62.2%
Second compound 0.01 µM, first compound 0.0316 µM
  viability, T/C: 76.9%
Second compound 0.01 µM, first compound 0.1 µM
  viability, T/C: 51.9%
Second compound 0.0316 µM, first compound 0.000316 µM
  viability, T/C: 100%
Second compound 0.0316 µM, first compound 0.001 µM
  viability, T/C: 99.1%
Second compound 0.0316 µM, first compound 0.00316 µM
  viability, T/C: 94.6%
Second compound 0.0316 µM, first compound 0.01 µM
  viability, T/C: 84.4%
Second compound 0.0316 µM, first compound 0.0316 µM
  viability, T/C: 83.8%
Second compound 0.0316 µM, first compound 0.1 µM
  viability, T/C: 31.6%
Second compound 0.1 µM, first compound 0.000316 µM
  viability, T/C: 102%
Second compound 0.1 µM, first compound 0.001 µM
  viability, T/C: 96.3%
Second compound 0.1 µM, first compound 0.00316 µM
  viability, T/C: 101%
Second compound 0.1 µM, first compound 0.01 µM
  viability, T/C: 86.6%
Second compound 0.1 µM, first compound 0.0316 µM
  viability, T/C: 57.3%
Second compound 0.1 µM, first compound 0.1 µM
  viability, T/C: 32.6%
Second compound 0.316 µM, first compound 0.000316 µM
  viability, T/C: 78.2%
Second compound 0.316 µM, first compound 0.001 µM
  viability, T/C: 91%
Second compound 0.316 µM, first compound 0.00316 µM
  viability, T/C: 61.5%
Second compound 0.316 µM, first compound 0.01 µM
  viability, T/C: 61%
Second compound 0.316 µM, first compound 0.0316 µM
  viability, T/C: 61.1%
Second compound 0.316 µM, first compound 0.1 µM
  viability, T/C: 32.3%
Second compound 1 µM, first compound 0.000316 µM
  viability, T/C: 50.6%
Second compound 1 µM, first compound 0.001 µM
  viability, T/C: 63.5%
Second compound 1 µM, first compound 0.00316 µM
  viability, T/C: 52%
Second compound 1 µM, first compound 0.01 µM
  viability, T/C: 49.7%
Second compound 1 µM, first compound 0.0316 µM
  viability, T/C: 35.2%
Second compound 1 µM, first compound 0.1 µM
  viability, T/C: 31.3%
